{"source": "patent US6830755B2", "about": "“Method for relaxing human beings using personal care compositions” (Johnson & Johnson Consumer Companies, Inc., priority 1999, dated 2004)", "origin": "cited, not measured here", "system": "salivary cortisol", "conditions": "exposure to fragrance before stressful arithmetic", "data": [{"compound": "Cc1c[nH]c2ccccc12", "note": "[skatole]", "values": [{"measurement": "effect on stress induced release of cortisol (in words)", "value": "had the opposite effect"}]}]}
